These results are taken from ChEMBL document CHEMBL1201862, “PubChem BioAssay data set” (2004).

Activity calls are given as the source filed them.

Assay [1] has as its target Caspase-9 (Homo sapiens, UniProt P55211). Briefly: inhibitors of purified CASP9 protease – biochemical, fluorescence, plate reader, cherry-picked samples, selectivity assay for caspase-6 inhibitor project, dose response (AID 743293).
Assay [2] has as its target Platelet-derived growth factor receptor beta (Homo sapiens, UniProt P09619). In kind it is functional.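 Also: value comes from a kinome panel, with PDGFRB tested as one panel member.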
Assay [3] addresses Caspase-7 (Homo sapiens, UniProt P55210). Briefly: caspase-7 enzyme inhibition, selectivity check – biochemical, DEVD-R110 fluorescence, cherry-pick, selectivity assay for caspase-6 inhibitor project, dose response (AID 743295). The class given is functional.
The target in assay [4] is T1, Insulin-degrading enzyme (Homo sapiens, UniProt P14735).
T1 sequence (P14735 whole entry): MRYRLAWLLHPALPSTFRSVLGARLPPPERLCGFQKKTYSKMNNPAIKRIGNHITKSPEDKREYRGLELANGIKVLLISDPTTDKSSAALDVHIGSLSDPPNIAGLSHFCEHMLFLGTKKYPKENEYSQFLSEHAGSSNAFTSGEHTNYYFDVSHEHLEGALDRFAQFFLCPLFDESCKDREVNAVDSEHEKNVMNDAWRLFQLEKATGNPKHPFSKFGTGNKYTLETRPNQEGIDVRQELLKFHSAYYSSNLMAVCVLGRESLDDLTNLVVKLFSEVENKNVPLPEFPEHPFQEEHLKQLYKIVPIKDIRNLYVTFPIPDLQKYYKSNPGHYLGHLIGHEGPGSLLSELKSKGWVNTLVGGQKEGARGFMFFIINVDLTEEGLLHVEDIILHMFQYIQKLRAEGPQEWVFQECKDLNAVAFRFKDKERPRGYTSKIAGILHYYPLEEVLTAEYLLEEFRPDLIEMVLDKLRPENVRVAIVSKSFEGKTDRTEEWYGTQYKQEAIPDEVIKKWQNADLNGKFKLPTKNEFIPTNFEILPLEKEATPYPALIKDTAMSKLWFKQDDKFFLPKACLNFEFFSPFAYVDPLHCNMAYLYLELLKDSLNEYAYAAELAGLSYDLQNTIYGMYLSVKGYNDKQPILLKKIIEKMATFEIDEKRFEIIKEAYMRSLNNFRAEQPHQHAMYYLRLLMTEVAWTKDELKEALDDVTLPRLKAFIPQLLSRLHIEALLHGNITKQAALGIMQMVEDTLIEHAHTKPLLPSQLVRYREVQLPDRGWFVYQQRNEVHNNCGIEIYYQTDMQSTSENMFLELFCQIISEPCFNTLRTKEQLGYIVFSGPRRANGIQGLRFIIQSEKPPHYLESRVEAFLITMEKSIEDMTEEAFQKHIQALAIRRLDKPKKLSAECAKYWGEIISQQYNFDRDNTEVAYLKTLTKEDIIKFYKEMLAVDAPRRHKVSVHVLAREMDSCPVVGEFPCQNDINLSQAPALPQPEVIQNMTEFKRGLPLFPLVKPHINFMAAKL
The assay can be described thus: recombinant IDE activation, cell-free – biochemical, fluorescence polarization, counter-screen for IDE activator project, dose response (AID 588681). (Fluorescence polarisation rises when a labelled molecule tumbles more slowly, as on binding a larger partner.)

Assay [5] concerns the target T2, Histone-lysine N-methyltransferase NSD2 (Homo sapiens, UniProt O96028).
T2 sequence (O96028 whole entry): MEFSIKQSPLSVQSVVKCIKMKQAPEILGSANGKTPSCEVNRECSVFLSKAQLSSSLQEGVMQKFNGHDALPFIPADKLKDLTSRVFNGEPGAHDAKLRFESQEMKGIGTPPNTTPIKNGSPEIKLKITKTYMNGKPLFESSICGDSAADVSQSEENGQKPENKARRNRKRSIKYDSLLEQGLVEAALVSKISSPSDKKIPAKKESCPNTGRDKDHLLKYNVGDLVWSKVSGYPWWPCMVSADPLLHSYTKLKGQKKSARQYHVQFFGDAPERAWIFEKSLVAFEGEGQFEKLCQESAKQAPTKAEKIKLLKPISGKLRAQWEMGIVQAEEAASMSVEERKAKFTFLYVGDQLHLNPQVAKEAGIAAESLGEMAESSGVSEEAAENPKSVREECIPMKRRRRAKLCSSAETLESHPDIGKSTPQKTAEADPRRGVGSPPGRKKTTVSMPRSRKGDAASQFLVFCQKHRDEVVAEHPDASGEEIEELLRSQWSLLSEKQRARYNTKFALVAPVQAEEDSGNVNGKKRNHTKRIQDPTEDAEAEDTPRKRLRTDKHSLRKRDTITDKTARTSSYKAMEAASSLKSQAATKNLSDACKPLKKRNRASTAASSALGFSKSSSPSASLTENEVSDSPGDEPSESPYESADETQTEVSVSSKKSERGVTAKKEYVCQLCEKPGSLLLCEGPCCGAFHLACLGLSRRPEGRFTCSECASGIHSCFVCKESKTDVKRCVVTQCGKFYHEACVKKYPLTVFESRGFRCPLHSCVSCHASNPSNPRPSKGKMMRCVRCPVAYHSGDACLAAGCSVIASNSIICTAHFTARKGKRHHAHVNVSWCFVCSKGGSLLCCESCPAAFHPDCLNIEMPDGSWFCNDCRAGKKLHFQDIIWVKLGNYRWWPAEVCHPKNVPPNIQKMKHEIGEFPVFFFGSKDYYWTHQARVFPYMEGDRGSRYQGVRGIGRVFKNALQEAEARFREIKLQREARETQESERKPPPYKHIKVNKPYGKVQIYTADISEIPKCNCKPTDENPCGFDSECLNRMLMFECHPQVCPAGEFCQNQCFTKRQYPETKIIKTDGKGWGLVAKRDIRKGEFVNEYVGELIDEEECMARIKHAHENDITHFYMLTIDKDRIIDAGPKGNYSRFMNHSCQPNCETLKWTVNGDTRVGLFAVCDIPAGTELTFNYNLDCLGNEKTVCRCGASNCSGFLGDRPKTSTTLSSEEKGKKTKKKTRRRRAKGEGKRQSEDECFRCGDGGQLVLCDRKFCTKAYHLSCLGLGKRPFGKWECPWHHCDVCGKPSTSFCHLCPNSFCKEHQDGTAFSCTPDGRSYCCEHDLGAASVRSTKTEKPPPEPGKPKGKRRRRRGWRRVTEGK
In kind it is biochemical.

The target in assay [6] is Phosphorylase b kinase gamma catalytic chain, liver/testis isoform (Homo sapiens, UniProt P15735). The class given is functional.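 Also: PHKG2 measured as one member of a kinome-wide kinase panel.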
Phosphorylase b kinase gamma catalytic chain, liver/testis isoform, sequence (P15735 whole entry, canonical isoform): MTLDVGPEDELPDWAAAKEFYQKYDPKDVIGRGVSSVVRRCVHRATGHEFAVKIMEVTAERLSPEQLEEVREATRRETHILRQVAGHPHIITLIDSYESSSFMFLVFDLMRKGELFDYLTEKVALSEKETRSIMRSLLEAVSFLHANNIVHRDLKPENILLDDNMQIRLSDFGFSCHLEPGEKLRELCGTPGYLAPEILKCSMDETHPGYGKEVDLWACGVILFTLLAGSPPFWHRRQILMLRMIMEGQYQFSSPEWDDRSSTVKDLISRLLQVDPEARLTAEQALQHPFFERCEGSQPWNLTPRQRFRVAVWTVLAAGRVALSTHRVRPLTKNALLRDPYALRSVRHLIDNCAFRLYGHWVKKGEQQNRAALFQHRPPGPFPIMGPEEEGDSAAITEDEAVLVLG
The target in assay [7] is Serine/threonine-protein kinase D2 (Homo sapiens, UniProt Q9BZL6). In kind it is functional.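 Also: measured against PRKD2 as one member of a kinome-wide kinase profiling panel.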
Serine/threonine-protein kinase D2, sequence (Q9BZL6 whole entry): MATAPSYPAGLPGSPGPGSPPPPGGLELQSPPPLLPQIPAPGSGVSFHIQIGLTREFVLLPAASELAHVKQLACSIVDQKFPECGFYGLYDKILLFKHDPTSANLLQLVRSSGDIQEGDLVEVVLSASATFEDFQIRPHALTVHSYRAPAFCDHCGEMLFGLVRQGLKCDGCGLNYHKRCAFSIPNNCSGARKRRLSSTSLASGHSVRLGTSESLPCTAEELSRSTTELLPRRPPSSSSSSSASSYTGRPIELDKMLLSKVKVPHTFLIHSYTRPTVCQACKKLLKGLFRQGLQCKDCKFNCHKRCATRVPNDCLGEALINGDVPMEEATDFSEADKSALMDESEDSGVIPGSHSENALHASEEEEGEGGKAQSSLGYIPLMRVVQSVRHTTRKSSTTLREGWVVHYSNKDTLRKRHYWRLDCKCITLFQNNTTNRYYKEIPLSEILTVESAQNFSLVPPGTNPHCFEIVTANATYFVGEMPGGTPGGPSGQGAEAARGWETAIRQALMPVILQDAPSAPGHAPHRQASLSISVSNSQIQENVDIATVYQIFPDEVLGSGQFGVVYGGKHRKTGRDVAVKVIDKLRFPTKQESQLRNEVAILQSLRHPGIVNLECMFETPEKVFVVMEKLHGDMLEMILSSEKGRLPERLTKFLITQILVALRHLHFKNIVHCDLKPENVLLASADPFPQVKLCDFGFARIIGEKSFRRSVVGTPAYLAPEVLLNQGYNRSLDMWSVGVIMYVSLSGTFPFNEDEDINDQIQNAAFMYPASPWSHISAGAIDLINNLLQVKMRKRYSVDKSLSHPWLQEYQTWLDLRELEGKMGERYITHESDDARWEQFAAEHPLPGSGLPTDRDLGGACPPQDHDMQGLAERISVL
Assay [8] concerns the target RAC-alpha serine/threonine-protein kinase (Homo sapiens, UniProt P31749). The class given is functional.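 Also: AKT1 affinity measured as one member of a kinome-wide kinase profiling panel.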
The target of assay [9] is Tyrosine-protein kinase FRK (Homo sapiens, UniProt P42685). The class given is functional.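 Also: FRK tested as one member of a kinome panel.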
Tyrosine-protein kinase FRK, sequence (P42685 whole entry): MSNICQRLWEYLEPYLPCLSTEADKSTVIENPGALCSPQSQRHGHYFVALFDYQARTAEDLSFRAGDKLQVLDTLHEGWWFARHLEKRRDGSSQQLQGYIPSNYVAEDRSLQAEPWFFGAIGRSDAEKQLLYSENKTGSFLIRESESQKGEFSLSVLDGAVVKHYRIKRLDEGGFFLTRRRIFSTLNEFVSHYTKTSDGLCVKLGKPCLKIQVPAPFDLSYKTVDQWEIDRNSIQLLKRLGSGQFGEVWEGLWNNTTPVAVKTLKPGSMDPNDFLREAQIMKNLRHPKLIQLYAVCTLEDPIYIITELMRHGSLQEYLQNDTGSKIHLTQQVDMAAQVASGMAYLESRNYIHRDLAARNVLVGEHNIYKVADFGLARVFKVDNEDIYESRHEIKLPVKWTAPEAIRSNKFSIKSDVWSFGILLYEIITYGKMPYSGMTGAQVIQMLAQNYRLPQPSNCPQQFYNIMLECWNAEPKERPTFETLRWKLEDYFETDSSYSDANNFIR
In assay [10] the target is Serine/threonine-protein kinase PLK1 (Homo sapiens, UniProt P53350). The class given is functional.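 Also: PLK1 measured as one member of a kinome-wide profiling panel.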
Serine/threonine-protein kinase PLK1, sequence (P53350 whole entry): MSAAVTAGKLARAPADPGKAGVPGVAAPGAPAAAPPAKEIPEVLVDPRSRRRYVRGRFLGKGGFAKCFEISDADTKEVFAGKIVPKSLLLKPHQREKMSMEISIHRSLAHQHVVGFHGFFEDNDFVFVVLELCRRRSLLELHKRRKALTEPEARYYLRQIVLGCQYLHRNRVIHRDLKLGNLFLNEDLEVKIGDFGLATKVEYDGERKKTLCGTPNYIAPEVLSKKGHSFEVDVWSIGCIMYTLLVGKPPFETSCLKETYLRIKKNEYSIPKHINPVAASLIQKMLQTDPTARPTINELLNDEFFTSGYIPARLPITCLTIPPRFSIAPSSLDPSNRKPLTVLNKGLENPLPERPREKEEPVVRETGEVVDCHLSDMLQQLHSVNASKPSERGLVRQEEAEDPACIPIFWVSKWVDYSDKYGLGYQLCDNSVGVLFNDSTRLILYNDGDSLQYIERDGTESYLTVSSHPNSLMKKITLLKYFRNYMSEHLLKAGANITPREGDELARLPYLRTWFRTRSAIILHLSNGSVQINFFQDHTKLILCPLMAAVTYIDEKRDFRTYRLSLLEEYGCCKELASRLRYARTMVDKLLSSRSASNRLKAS
The target in assay [11] is Serine/threonine-protein kinase PLK4 (Homo sapiens, UniProt O00444). The class given is functional.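 Also: PLK4 measured as one member of a kinome-wide kinase profiling panel.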
Serine/threonine-protein kinase PLK4, sequence (O00444 whole entry): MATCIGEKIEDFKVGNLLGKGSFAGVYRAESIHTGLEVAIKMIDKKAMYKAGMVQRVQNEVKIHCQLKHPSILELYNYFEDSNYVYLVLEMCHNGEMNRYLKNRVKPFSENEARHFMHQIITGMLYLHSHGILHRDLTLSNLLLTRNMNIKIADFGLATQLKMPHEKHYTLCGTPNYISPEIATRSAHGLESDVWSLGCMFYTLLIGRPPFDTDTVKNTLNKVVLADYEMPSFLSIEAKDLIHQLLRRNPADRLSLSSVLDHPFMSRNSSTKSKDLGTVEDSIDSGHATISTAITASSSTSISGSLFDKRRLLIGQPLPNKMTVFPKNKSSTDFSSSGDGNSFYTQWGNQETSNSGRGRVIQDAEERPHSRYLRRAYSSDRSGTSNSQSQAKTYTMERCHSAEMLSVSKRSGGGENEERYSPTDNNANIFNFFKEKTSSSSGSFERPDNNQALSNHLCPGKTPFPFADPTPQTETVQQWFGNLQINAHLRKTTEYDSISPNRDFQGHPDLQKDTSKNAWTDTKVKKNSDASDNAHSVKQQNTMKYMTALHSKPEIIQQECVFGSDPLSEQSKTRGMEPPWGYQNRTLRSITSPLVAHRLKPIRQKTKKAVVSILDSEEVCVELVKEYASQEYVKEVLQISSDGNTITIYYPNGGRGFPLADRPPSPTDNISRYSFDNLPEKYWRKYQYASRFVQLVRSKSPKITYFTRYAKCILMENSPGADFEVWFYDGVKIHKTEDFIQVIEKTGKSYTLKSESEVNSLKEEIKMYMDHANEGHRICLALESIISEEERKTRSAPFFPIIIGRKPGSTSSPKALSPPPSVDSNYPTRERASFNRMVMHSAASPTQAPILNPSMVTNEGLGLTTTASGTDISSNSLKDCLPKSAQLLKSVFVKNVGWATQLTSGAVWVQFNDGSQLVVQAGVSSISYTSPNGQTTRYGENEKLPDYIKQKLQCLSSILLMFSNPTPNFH

RAC-alpha serine/threonine-protein kinase, sequence (P31749 whole entry): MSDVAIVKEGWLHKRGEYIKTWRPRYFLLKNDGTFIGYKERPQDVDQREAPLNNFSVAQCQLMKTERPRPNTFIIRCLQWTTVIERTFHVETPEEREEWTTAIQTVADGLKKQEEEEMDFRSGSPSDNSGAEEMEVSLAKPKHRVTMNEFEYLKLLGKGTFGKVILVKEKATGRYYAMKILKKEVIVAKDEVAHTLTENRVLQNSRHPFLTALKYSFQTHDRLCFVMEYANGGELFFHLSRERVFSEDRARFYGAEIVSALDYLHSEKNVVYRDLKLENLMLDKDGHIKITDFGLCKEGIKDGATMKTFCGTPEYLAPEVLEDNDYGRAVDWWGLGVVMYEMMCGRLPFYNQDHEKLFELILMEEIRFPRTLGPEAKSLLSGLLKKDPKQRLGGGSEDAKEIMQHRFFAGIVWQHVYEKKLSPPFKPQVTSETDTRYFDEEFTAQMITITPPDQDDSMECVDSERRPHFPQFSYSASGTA
Caspase-7, sequence (P55210 24-198 limits assumed): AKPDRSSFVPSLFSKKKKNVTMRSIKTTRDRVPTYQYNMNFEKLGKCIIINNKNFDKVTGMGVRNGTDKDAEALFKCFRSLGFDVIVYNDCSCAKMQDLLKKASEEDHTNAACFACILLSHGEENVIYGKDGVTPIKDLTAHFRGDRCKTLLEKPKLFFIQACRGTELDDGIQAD
Caspase-7, sequence (P55210 207-303 limits assumed): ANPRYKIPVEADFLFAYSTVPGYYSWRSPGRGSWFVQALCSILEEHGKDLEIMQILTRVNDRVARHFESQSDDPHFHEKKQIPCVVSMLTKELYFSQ
Caspase-9, sequence (P55211 1-315 limits assumed): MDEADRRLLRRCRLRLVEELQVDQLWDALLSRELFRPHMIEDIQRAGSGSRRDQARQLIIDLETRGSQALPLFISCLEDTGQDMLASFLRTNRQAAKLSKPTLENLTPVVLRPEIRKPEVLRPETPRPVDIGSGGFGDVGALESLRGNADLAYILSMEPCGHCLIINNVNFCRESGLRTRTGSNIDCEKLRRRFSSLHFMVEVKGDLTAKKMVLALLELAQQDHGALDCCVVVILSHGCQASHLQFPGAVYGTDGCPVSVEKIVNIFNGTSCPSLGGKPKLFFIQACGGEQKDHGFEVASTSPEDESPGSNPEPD
Caspase-9, sequence (P55211 331-416 limits assumed): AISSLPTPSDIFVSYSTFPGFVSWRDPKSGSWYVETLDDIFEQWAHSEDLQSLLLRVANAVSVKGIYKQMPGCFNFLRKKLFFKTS

The AC50 is the midpoint of the concentration-response curve, whichever way the signal moves. As for `O=C(COC(=O)c1ccc([N+](=O)[O-])s1)Nc1ccc(F)cc1`, the AC50 in assay [1] is 27.2 µM (active).
In general, Ki refers to the equilibrium dissociation constant of an inhibitor or competing ligand from its target. In the case of `COc1cccc(CNC(=O)c2cnc(-c3ccncc3)nc2)c1`, in assay [2], the Ki was > 2 µM (inactive).
In general, EC50 refers to the concentration giving half of the maximal effect. For the compound `CCN(CC)CCCC(C)n1c2nc(=O)[nH]c(=O)c-2nc2cc(Cl)ccc21` (stereo unspecified), the AC50 is 0.899 µM (active) in assay [3] and 1.18 µM (active) in assay [5]. Also, the EC50 in [4] is > 54.7 µM (inactive).
As usually defined, the pKi is the negative decadic logarithm of the Ki, by convention in mol/L. The low end stands for a high Ki, the high end for a low Ki. Turning to `OC1CCC(Nc2nc(Cl)cc(-c3c[nH]c4ncccc34)n2)CC1` (stereo unspecified), the inhibition constant Ki in assay [6] is 0.2 µM (active); in assay [7] it was 0.02 µM (active); in assay [8] it was 2 µM (active); in assay [9], 0.398 µM (active); in assay [10], 0.251 µM (active); in assay [11] it was > 3.98 µM (inactive). Moreover, the pKi was found to be 6.7 in assay [6]; 7.7 in assay [7]; 5.7 in [8]; 6.4 in [9]; 6.6 in [10].
